Reference: US20190389843A1, “PYRROLE mTORC INHIBITORS AND USES THEREOF” (Navitor Pharmaceuticals, Inc., priority 2016, published 2019)
Where a name gives a salt, the structure may show the parent alone.

How the values were obtained:
[1] = test system: pS6K1 in MCF7 (measure of mTORC1 activity); assay: AlphaLISA Ultra pS6K1 assay; assay type: cell-based; conditions: Homo sapiens, MCF7, 2 h, MCF-7 cells, 2 hours compound incubation
Description: (§1) Assay Protocol: • 1. […] 12,000˜16,000 cells will be seeded in 36 μL medium per well. • 2. Change the culture medium with fresh medium and incubate for another 2 hours. • 3. Add 12 μL (4λ) compounds into the cell plate by HAMILTON. Final DMSO concentration is 0.5%. Incubate for 2 hours. • 4. Aspirate 38 μL by HAMILTON, 10 μL rest per well. • 5. Add 10 μL 2× lysis buffer using HAMILTON; total volume in wells is 20 μL. Allow cells to shake for 30 min. Cover plate by plastic foil and store plate at −80° C. up to analysis. • 6. […] Add 5 ul acceptor beads into assay plate and incubation for 2 hours • 8. Add 5 ul donor beads and incubation for 2 hours • 9. Count the plate by EnSpire Multimode Plate Reader

[2] = test system: pAKT in MCF7 (measure of mTORC2 activity); assay: AlphaLISA Ultra pAKT assay; assay type: cell-based; conditions: Homo sapiens, MCF7, 2 h, MCF-7 cells, 2 hours compound incubation
Description: as §1, with “16,000˜20,000” for “12,000˜16,000”, “(4×)” for “(4λ)”

Compound | IC50 [1] [µM] | IC50 [2] [µM]
Cc1c(CN2CCN(c3ccccc3Cl)CC2)cc(C(=O)N2CCN(c3ncc(F)cn3)C[C@@H]2C)n1C [Example I-77, (S)-(4-((4-(2-chlorophenyl)piperazin-1-yl)methyl)-1,5-dimethyl-1H-pyrrol-2-yl)(4-(5-fluoropyrimidin-2-yl)-2-methylpiperazin-1-yl)methanone] | 1 to 3 | > 5
COCCn1cc(CN2CCN(c3ccccc3Cl)CC2)cc1C(=O)N1CCN(c2ccccc2F)CC1 [Example I-141] | 3 to 10 | > 10
COCCn1cc(CN2CCN(c3ccccc3C#N)CC2)cc1C(=O)N1CCN(c2ccccc2OC)CC1 [Example I-150] | 3 to 10 | > 10
Cc1c(CN2CCN(c3ccccc3Cl)CC2)cc(C(=O)N2CCn3nc(-c4ccccc4)cc3C2)n1C [Example I-81, (4-((4-(2-Chlorophenyl)piperazin-1-yl)methyl)-1,5-dimethyl-1H-pyrrol-2-yl)(2-phenyl-6,7-dihydropyrazolo[1,5-a]pyrazin-5(4H)-yl)methanone 2,2,2-trifluoroacetate] | 1 to 3 | > 10
Cn1cc(CN2CCC(Nc3ccccc3Cl)CC2)cc1C(=O)N1CCN(c2ccc(F)cc2)CC1 [Example I-130] | 1 to 3 | > 10
Cc1c(CN2CCN(c3ccccc3Cl)CC2)cc(C(=O)N2CCN(c3cc(C#N)ccn3)CC2)n1C [Example I-59] | 1 to 3 | > 3
Cc1c(CN2CCN(c3ccccc3Cl)CC2)cc(C(=O)N2CCN(c3ccc4[nH]ccc4c3)C[C@@H]2C)n1C [Example I-33, (S)-(4-(1H-indol-5-yl)-2-methylpiperazin-1-yl)(4-((4-(2-chlorophenyl)piperazin-1-yl)methyl)-1,5-dimethyl-1H-pyrrol-2-yl)methanone trifluoroacetate salt] | 1 to 3 | > 10
Cc1c(CN2CCN(c3ccccc3Cl)CC2)cc(C(=O)N2CCN(c3cccc(N=[N+]=[N-])c3)C[C@@H]2C)n1C [Example I-104, (S)-(4-(3-azidophenyl)-2-methylpiperazin-1-yl)(4-((4-(2-chlorophenyl)piperazin-1-yl)methyl)-1,5-dimethyl-1H-pyrrol-2-yl)methanone] | 1 to 3 | > 5
O=C(c1cc(CN2CCN(c3ccccc3Cl)CC2)cn1CCO)N1CCN(c2ccccc2)CC1 [Example I-142] | 1 to 3 | > 3
Cn1cc(CN2CCN(c3ccccc3C#N)CC2)cc1C(=O)N1CCN(c2nnccc2C#N)CC1 [Example I-17] | 3 to 10 | > 10
Cc1c(CN2CCN(c3ccccc3N=[N+]=[N-])CC2)cc(C(=O)N2CCN(c3ccccc3)CC2)n1C [Example I-97, (4-((4-(2-azidophenyl)piperazin-1-yl)methyl)-1,5-dimethyl-1H-pyrrol-2-yl)(4-phenylpiperazin-1-yl)methanone] | 1 to 3 | > 5
C[C@@H]1CN(Cc2cc(C(=O)N3CCN(c4ccc(F)cc4)CC3)n(C)c2)CCN1c1ccccc1Cl [Example I-103] | 1 to 3 | > 10
CCCCn1cc(CN2CCN(c3ccccc3Cl)CC2)cc1C(=O)N1CCN(c2ccccc2)CC1 [Example I-146] | 3 to 10 | > 10
Cc1c(CN2CCN(c3ccccc3C#N)CC2)cc(C(=O)N2CCN(c3nnccc3C#N)CC2)n1C [Example I-15] | 1 to 3 | > 10
Cc1c(CN2CCN(c3ncccc3Cl)CC2)cc(C(=O)N2CCN(c3ccc(F)cc3)CC2)n1C [Example I-80, (4-((4-(3-Chloropyridin-2-yl)piperazin-1-yl)methyl)-1,5-dimethyl-1H-pyrrol-2-yl)(4-(4-fluorophenyl)piperazin-1-yl)methanone] | 0.01 to 1 | > 3
Cc1c(CN2CCN(c3ccccc3Cl)CC2)cc(C(=O)N2CCN(c3cc(F)cc(F)c3)CC2)n1C [Example I-96, (4-((4-(2-chlorophenyl)piperazin-1-yl)methyl)-1,5-dimethyl-1H-pyrrol-2-yl)(4-(3,5-difluorophenyl)piperazin-1-yl)methanone] | 0.01 to 1 | > 3
Cc1c(CN2CCN(c3ccccc3C#N)CC2)cc(C(=O)N2CCN(c3ccccc3C#N)C[C@@H]2C)n1C [Example I-67] | 0.01 to 1 | > 10
Cc1c(CN2CCN(c3ccccc3C#N)CC2)cc(C(=O)N2CCN(c3ncccc3C#N)CC2)n1C [Example I-56] | 0.01 to 1 | > 3
CCn1cc(CN2CCN(c3ccccc3Cl)CC2)cc1C(=O)N1CCN(c2ccccc2)CC1 [Example I-143] | 0.01 to 1 | > 3
Cc1c(CN2CCN(c3ccccc3C#N)CC2)cc(C(=O)N2CCN(c3cc(C#N)ccn3)CC2)n1C [Example I-65] | 0.01 to 1 | > 3
Cc1ccnc(N2CCN(C(=O)c3cc(CN4CCN(c5ccccc5Cl)CC4)c(C)n3C)CC2)c1 [Example I-70] | 0.01 to 1 | > 3
Cc1c(CN2CCN(c3ccccc3Cl)CC2)cc(C(=O)N2CCN(c3ccccc3)CC2)n1C [Example I-133, (4-((4-(2-Chlorophenyl)piperazin-1-yl)methyl)-1,5-dimethyl-1H-pyrrol-2-yl)(4-phenylpiperazin-1-yl)methanone] | 0.01 to 1 | > 1

More lines, now with the values ahead:

IC50 [1] [µM] | IC50 [2] [µM] | Compound
0.01 to 1 | > 1 | Cc1c(CN2CCN(c3ccccc3Cl)CC2)cc(C(=O)N2CCN(c3cccc(F)c3)CC2)n1C [Example I-108, (4-((4-(2-Chlorophenyl)piperazin-1-yl)methyl)-1,5-dimethyl-1H-pyrrol-2-yl)(4-(3-fluorophenyl)piperazin-1-yl)methanone]
0.01 to 1 | > 3 | Cc1c(CN2CCN(c3ccccc3Cl)CC2)cc(C(=O)N2CCN(c3ccc(F)cc3)CC2)n1C [Example I-115, (4-((4-(2-Chlorophenyl)piperazin-1-yl)methyl)-1,5-dimethyl-1H-pyrrol-2-yl)(4-(4-fluorophenyl)piperazin-1-yl)methanone]
0.01 to 1 | > 1 | Cc1c(CN2CCN(c3ccccc3Cl)CC2)cc(C(=O)N2CCN(c3cc(F)c(F)cc3C#N)CC2)n1C [Example I-1]
0.01 to 1 | > 1 | Cc1c(CN2CCN(c3ccccc3Cl)CC2)cc(C(=O)N2CCN(c3cccc(C#N)c3)CC2)n1C [Example I-110, 3-(4-(4-((4-(2-chlorophenyl)piperazin-1-yl)methyl)-1,5-dimethyl-1H-pyrrole-2-carbonyl)piperazin-1-yl)benzonitrile]
0.01 to 1 | > 3 | Cc1c(CN2CCN(c3ncccc3Cl)CC2)cc(C(=O)N2CCN(c3ccc(F)c(F)c3)C[C@@H]2C)n1C [Example I-78, (S)-(4-((4-(3-chloropyridin-2-yl)piperazin-1-yl)methyl)-1,5-dimethyl-1H-pyrrol-2-yl)(4-(3,4-difluorophenyl)-2-methylpiperazin-1-yl)methanone]
0.01 to 1 | > 3 | Cc1c(CN2CCN(c3ccccc3C#N)CC2)cc(C(=O)N2CCN(c3cccc(C#N)n3)CC2)n1C [Example I-43]
0.01 to 1 | > 10 | Cn1c(C(=O)N2CCN(c3ccccc3)CC2)cc(CN2CCN(c3ccccc3C#N)CC2)c1C#N [Example I-39]
0.01 to 1 | > 3 | Cc1ccnc(N2CCN(C(=O)c3cc(CN4CCN(c5ccccc5C#N)CC4)c(C)n3C)CC2)c1 [Example I-62]
0.01 to 1 | > 3 | Cc1c(CN2CCN(c3ncccc3Cl)CC2)cc(C(=O)N2CCN(c3cccc(C#N)c3)CC2)n1C [Example I-79, 3-(4-(4-((4-(3-Chloropyridin-2-yl)piperazin-1-yl)methyl)-1,5-dimethyl-1H-pyrrole-2-carbonyl)piperazin-1-yl)benzonitrile]
0.01 to 1 | > 3 | Cc1c(CN2CCN(c3ccccc3Cl)CC2)cc(C(=O)N2CCN(c3cccc(Cl)c3)C[C@@H]2C)n1C [Example I-112, (S)-(4-(3-chlorophenyl)-2-methylpiperazin-1-yl)(4-((4-(2-chlorophenyl)piperazin-1-yl)methyl)-1,5-dimethyl-1H-pyrrol-2-yl)methanone]
0.01 to 1 | > 3 | Cc1nc(N2CCN(C(=O)c3cc(CN4CCN(c5ccccc5Cl)CC4)c(C#N)n3C)CC2)ccc1F [Example I-37]
0.01 to 1 | > 3 | COc1ccnc(N2CCN(C(=O)c3cc(CN4CCN(c5ccccc5C#N)CC4)c(C)n3C)CC2)c1 [Example I-61]
0.01 to 1 | > 1 | Cn1cc(CN2CCN(c3ccccc3Cl)CC2)cc1C(=O)N1CCN(c2ccccn2)CC1 [Example I-122]
0.01 to 1 | > 5 | C[C@H]1CN(c2cccc(F)c2C#N)CCN1C(=O)c1cc(CN2CCN(c3ccccc3Cl)CC2)cn1C [Example I-101, (S)-2-(4-(4-((4-(2-chlorophenyl)piperazin-1-yl)methyl)-1-methyl-1H-pyrrole-2-carbonyl)-3-methylpiperazin-1-yl)-6-fluorobenzonitrile]
